Measurements: patent US20250108036A1, “COMPOSITIONS FOR REMOVING SENESCENT CELLS AND USES THEREOF” (LIFECEUTIX CO., LTD., priority 2021, published 2025)

Legend:
Type in all cases: cell-based, human
[1] = system: foreskin cells in which senescence was induced by doxorubicin; experiment: CellTiter-Glo cell viability of doxorubicin-induced senescent foreskin cells (Examples 1-2, 10, 11, 13; Tables 4, 63, 65); details: Homo sapiens, 72 h, doxorubicin-induced senescent foreskin cells, CellTiter-Glo, 0 μM = 100, read-out: Survival (%); for viability at 1.1 µM: 1.1 μM test compound; for viability at […]: […] test compound
Experimental: After 3 days, cell viability was measured using CellTiter-Glo Luminescent Cell Viability Assay (Promega) or light microscopy.

HMGN1 [2] = experiment: HMGN1 ELISA in culture medium of A549 cancer cells (Example 12, Table 66); details: Homo sapiens, A549, doxorubicin-induced senescent A549 cells, test compound 30 μM, ELISA, DMSO = 100; read-out: HMGN1 (amount of HMGN1 secreted in the cell culture)
HMGN1 [3] = experiment: HMGN1 ELISA in culture medium of foreskin cells (Examples 10, 11; Tables 62, 63, 64); details: Homo sapiens, 30 μM test compound, doxorubicin-treated foreskin cells, DMSO = 100; read-out: HMGN1
A549 = experiment: CellTiter-Glo cell viability of senescent A549 cancer cells (Example 12, Table 67); details: Homo sapiens, A549, doxorubicin-induced senescent A549 cancer cells, CellTiter-Glo, read-out: Survival (%); for viability at 1.1 µM: 1.1 μM test compound; for viability at 10 µM: 10 μM test compound

With C[C@@H]1C(=O)C(C#N)=C[C@]2(c3ccccc3)c3c(c(-c4cccnc4)nn3C)CC[C@@H]12 [LX-2407, (5aS,6S,9aR)-1,6-dimethyl-7-oxo-9a-phenyl-3-(pyridin-3-yl)-4,5,5a,6,7,9a-hexahydro-1H-benzo[g]indazole-8-carbonitrile] the viability at 1.1 µM [1] was 15.4%, the viability at […] [1] was 5.9% and the activity at 30 µM (HMGN1 [2]) was 316%. The activity at 30 µM (HMGN1 [3]) was 308%, the viability at 1.1 µM (A549) was 89.6% and the viability at 10 µM (A549) was 41.8%.
C[C@@H]1C(=O)C(C#N)=C[C@]2(C)c3nc(CCO)n(-c4ccccc4)c3CC[C@@H]12 [LX-2409] showed a viability at 1.1 µM [1] of 37.1%, a viability at […] [1] of 12.8% and an activity at 30 µM (HMGN1 [2]) of 281%. For the same molecule, the activity at 30 µM (HMGN1 [3]) was 239%, the viability at 1.1 µM (A549) was 88.5% and the viability at 10 µM (A549) was 26.4%.
CC(O)[C@]1(C)C(=O)C(C#N)=C[C@]2(C)C3=CC(=O)[C@]45OC(=O)[C@@]6(CCC(C)(C)C[C@H]64)CC[C@@]5(C)[C@]3(C)CC[C@@H]12 (stereo partly shown) [LX-2501] gave a viability at 1.1 µM [1] of 11.1%, an activity at 30 µM (HMGN1 [2]) of 333% and an activity at 30 µM (HMGN1 [3]) of 309%. For the same molecule, the viability at 1.1 µM (A549) was 14.4%.
In the case of CCC[C@H]1C(=O)C(C#N)=C[C@@]2(C)c3nc(-c4ccnc5ccccc45)nc(-c4ccccc4F)c3CC[C@H]12 [LX-2502], the viability at 1.1 µM [1] was 49.6%, the viability at […] [1] was 13.4% and the activity at 30 µM (HMGN1 [2]) was 297%. The activity at 30 µM (HMGN1 [3]) was 258%, the viability at 1.1 µM (A549) was 97.2% and the viability at 10 µM (A549) was 5.9%.
Work on CCC[C@H]1C(=O)C(C#N)C[C@@]2(C)c3nc(-c4cccc5ncccc45)nc(-c4ccccc4F)c3CC[C@H]12 (stereo partly shown) [LX-2503] yielded a viability at 1.1 µM [1] of 82.4%, a viability at […] [1] of 25.8% and an activity at 30 µM (HMGN1 [2]) of 285%. It also gave an activity at 30 µM (HMGN1 [3]) of 297%, a viability at 1.1 µM (A549) of 105% and a viability at 10 µM (A549) of 31.2%.
C[C@H]1C(=O)C(C#N)=C[C@@]2(C)c3c(c(-c4ccccc4)nn3-c3ccc(-c4cccc(CO)c4)cc3)CC[C@H]12 [LX-2505] showed a viability at 1.1 µM [1] of 78.6%, a viability at […] [1] of 36.9% and an activity at 30 µM (HMGN1 [2]) of 308%. The activity at 30 µM (HMGN1 [3]) was 248%, the viability at 1.1 µM (A549) was 100% and the viability at 10 µM (A549) was 18.6%.
Cc1cc(-c2ccc(-n3nc(-c4ccccc4F)c4c3[C@]3(C)C=C(C#N)C(=O)[C@H](C)[C@H]3CC4)cc2)cnn1 [LX-2506] was tested, and the viability at 1.1 µM [1] was 91%, the viability at […] [1] was 11.8% and the activity at 30 µM (HMGN1 [2]) was 267%. The activity at 30 µM (HMGN1 [3]) was 279%, the viability at 1.1 µM (A549) was 98.3% and the viability at 10 µM (A549) was 26.4%.
C[C@@H]1C(=O)C(C#N)=C[C@]2(C)C3=CC(=O)[C@@H]4[C@@H]5CC(C)(C)CC[C@]5(c5nnc(CF)o5)CC[C@@]4(C)[C@]3(C)CC[C@@H]12 [LX-2507] showed a viability at 1.1 µM [1] of 46.6%, a viability at […] [1] of 38.6% and an activity at 30 µM (HMGN1 [2]) of 248%. For the same molecule, the activity at 30 µM (HMGN1 [3]) was 267%, the viability at 1.1 µM (A549) was 97.5% and the viability at 10 µM (A549) was 35.7%.
Work on CC1(C)CC[C@]2(c3nc(CO)no3)CC[C@]3(C)[C@H](C(=O)C=C4[C@@]5(C)C=C(C#N)C(=O)C(C)(C)[C@@H]5CC[C@]43C)[C@@H]2C1 [LX-2508] yielded a viability at 1.1 µM [1] of 75.6%, a viability at […] [1] of 28.2% and an activity at 30 µM (HMGN1 [2]) of 283%. The activity at 30 µM (HMGN1 [3]) was 313%, the viability at 1.1 µM (A549) was 93.5% and the viability at 10 µM (A549) was 43.9%.
Molecule C=CC(=O)NC[C@]12CCC(C)(C)C[C@H]1[C@H]1C(=O)C=C3[C@@]4(C)C=C(C#N)C(=O)C(C)(C)[C@@H]4CC[C@@]3(C)[C@]1(C)CC2 [LX-2509] has a viability at 1.1 µM [1] of 81.1%, a viability at […] [1] of 13.5% and an activity at 30 µM (HMGN1 [2]) of 305%. It also gave an activity at 30 µM (HMGN1 [3]) of 301%, a viability at 1.1 µM (A549) of 106% and a viability at 10 µM (A549) of 21.8%.
CCC(=O)NC[C@]12CCC(C)(C)C[C@H]1[C@H]1C(=O)C=C3[C@@]4(C)C=C(C#N)C(=O)C(C)(C)[C@@H]4CC[C@@]3(C)[C@]1(C)CC2 [LX-2510] gave a viability at 1.1 µM [1] of 62.9%, a viability at […] [1] of 11.8% and an activity at 30 µM (HMGN1 [2]) of 317%. For the same molecule, the activity at 30 µM (HMGN1 [3]) was 288%, the viability at 1.1 µM (A549) was 95.7% and the viability at 10 µM (A549) was 2.9%.
